We go through ten molecules from paper PMC6100043, “Development of Thiophene Compounds as Potent Chemotherapies for the Treatment of Cutaneous Leishmaniasis Caused by Leishmania major” (Molecules : A Journal of Synthetic Chemistry and Natural …, 2018).

A short description of data set [1]: Mammalian cell cytotoxicity (alamarBlue for 5A; PI/Hoechst HCIA for 5D, 5E) in IPΦ. Particulars: BALB/c, mouse, intraperitoneal mouse macrophages (IPΦ). Background: Alamar Blue is a resazurin reagent that responds to reducing activity.
Data set [2] deals with intraperitoneal mouse macrophages (IPΦ). The description is as above. The following applies: for S.I. IPΦ (CC50 mammalian cells)/(EC50 in L. major-luc promastigotes): IPΦ vs L. major-luc promastigotes.
Data set [3] has as its system L. major intracellular amastigotes. Kind of data set: High-Content Imaging Assay, proliferation of intracellular amastigotes in infected IPΦ. Format: cell-based, Leishmania major. The following applies: for number of infected cells compared to control treated with 1% DMSO: 2.5 µM, infected IPΦ; for number of infected cells compared to control treated with 1% DMSO / inhibition at 0.625 µM: 48 h; for inhibition at 0.625 µM: Leishmania major, read-out: inhibition of the proliferation of intracellular amastigotes.

The test system of data set [4] is monkey kidney cells (LLC-MK2). The data set can be described thus: Mammalian cell cytotoxicity (alamarBlue for 5A; PI/Hoechst HCIA for 5D, 5E) in LLC-MK2. Particulars: for S.I. LLC-MK2 (CC50 mammalian cells)/(EC50 in L. major-luc promastigotes): LLC-MK2 vs L. major-luc promastigotes.
Experiment in data set [5]: as above
Particulars: rhesus monkey, LLC-MK2 kidney epithelial cells.

The subject of data set [6] is L. major-luc promastigotes. Kind of data set: Luciferase assay, viability of L. major-luc promastigotes. Format: cell-based, Leishmania major. Particulars: 72 h at 28 °C, 2 × 10^6 promastigotes per mL, luciferase activity.
Details of data set [7]: method as in PMID 25365529, PMID 26230675. The following applies: cited from earlier work.
Data set [8] deals with L. major promastigotes. The data set can be described thus: Measurement of reactive oxygen species levels (H2DCFDA). Format: cell-based, Leishmania major. Particulars: 5D at EC50, 24 h incubation + 7 h reading (31 h), H2DCFDA 10 µM.
Where [9] appears, read: read-out: EC50 Leishmania major-luc promastigotes.

Like-named read-outs stand apart in the source and are kept apart here.

With `CCOC(=O)c1c(NC(=O)c2ccc(F)c(C(F)(F)F)c2)sc2c1CC(C)(C)NC2(C)C` [Compound 5E, Ethyl-2-(4-fluoro-3-(trifluoromethyl)benzamido)-5,5,7,7-tetramethyl-4,5,6,7-tetrahydrothieno[2,3-c]-pyridine-3-carboxylate], the CC50 (in general, the concentration giving 50% cytotoxicity) at 48 h in data set [1] stood at 16.6 ± 1.52 µM. In data set [2], the “S.I. IPΦ (CC50 mammalian cells)/(EC50 in L. major-luc promastigotes)” value (from here on “S.I. IPΦ”) came to 21.27. For the same molecule, in data set [3], the “number of infected cells compared to control treated with 1% DMSO” value is reported as “reduced number of infected cells” and the inhibition at 0.625 µM is over 50%. The “S.I. LLC-MK2 (CC50 mammalian cells)/(EC50 in L. major-luc promastigotes)” value in data set [4] is listed as 102.56. The same molecule had a CC50 at 72 h in data set [5] of 80 ± 4.45 µM. Further, in data set [6] (Leishmania major, 72 h), the concentration for a half-maximal effect (EC50) (commonly the concentration that produces a half-maximal response) amounted to 0.78 ± 0.11 µM.

Turning to `CCCCCCCCCCCCCCCCOP(=O)([O-])OCC[N+](C)(C)C` [Miltefosine, miltefosine], the half-life – broadly, how long it takes for the measured level to halve – in data set [7] was 150 h.

Take `CCOC(=O)c1c(NC(=O)c2ccc(C(F)(F)F)cc2)sc2c1CC(C)(C)NC2(C)C` [Compound 5A, Ethyl 5,5,7,7-tetramethyl-2-(4-(trifluoromethyl)benzamido)-4,5,6,7-tetrahydrothieno[2,3-c]pyridine-3-carboxylate]: the CC50 at 48 h in data set [1] was about 10.4 µM. In data set [2], the “S.I. IPΦ” value was 30.50. Besides, the “cytotoxicity for IPΦ” value in data set [2] (at 5 and 10 µM, in HCIA of infected IPΦ, 48 h) is “cytotoxic”. In addition, the “S.I. LLC-MK2 (CC50 mammalian cells)/(EC50 in L. major-luc promastigotes)” value in data set [4] was 52.85. Moreover, half-maximal cytotoxicity in data set [5] (CC50 at 72 h) was put at 17.7 ± 1.12 µM. In addition, the EC50 in data set [6] (setting [9]) is about 0.341 µM; in data set [6] (Leishmania major, 72 h), about 0.34 µM.

With `CCOC(=O)c1c(NC(=O)c2cccc(C(F)(F)F)c2F)sc2c1CC(C)(C)NC2(C)C` [Compound 5D, Ethyl-2-(2-fluoro-3-(trifluoromethyl)benzamido)-5,5,7,7-tetramethyl-4,5,6,7-tetrahydrothieno[2,3-c]-pyridine-3-carboxylate], in data set [1], the CC50 at 48 h amounted to 27.9 ± 3.19 µM. The “S.I. IPΦ” value in data set [2] worked out at 310. The “selectivity compared with parent compound 5A” value in data set [2] (fold higher than 5A) was determined as 10 fold. In data set [3], the “number of infected cells compared to control treated with 1% DMSO” value was “reduced number of infected cells” and the inhibition at 0.625 µM is over 75%. For the same molecule, in data set [3] (infected murine macrophages, concentration not given), the “decrease of the proliferation of the parasite (intracellular amastigotes)” value is recorded as 80%. Besides, the “ROS levels, fold higher compared to vehicle control 1% DMSO” value in data set [8] is listed as 14.5 fold. The “toxicity against LLC-MK2” value in data set [4] (at concentrations up to 80 µM, 72 h) was “did not display perceptible toxicity”. For the same molecule, the CC50 at 72 h in data set [5] is over 80 µM.

Take `COC(=O)c1c(NC(=O)c2ccccc2C(F)(F)F)sc2c1CC(C)(C)NC2(C)C` [Compound 5I, Methyl-5,5,7,7-tetramethyl-2-(2-(trifluoromethyl)benzamido)-4,5,6,7-tetrahydrothieno[2,3-c]pyridine-3-carboxylate]: the half-maximal effective concentration (EC50) in data set [6] (Leishmania major, 72 h) was found to be 5.5 ± 1.8 µM.

In data set [6] (Leishmania major, 72 h), `CC1(C)Cc2c(sc(NC(=O)c3cc(Cl)ccc3C(F)(F)F)c2C(=O)O)C(C)(C)N1` [Compound 5F, 2-(5-chloro-2-(trifluoromethyl)benzamido)-5,5,7,7-tetramethyl-4,5,6,7-tetrahydrothieno[2,3-c]pyridine-3-carboxylic acid] registered an EC50 of over 12.5 µM.

As for `CCOC(=O)c1c(NC(=O)c2ccccc2C(F)(F)F)sc2c1CC(C)(C)NC2(C)C` [Compound 5B, Ethyl-5,5,7,7-tetramethyl-2-(2-(trifluoromethyl)benzamido)-4,5,6,7-tetrahydrothieno[2,3-c]pyridine-3-carboxylate], the response in data set [6] (Leishmania major, 72 h) was half-maximal at 5.98 ± 1.72 µM (EC50).

In the case of “Ethyl-5,5,7,7-tetramethyl-2-(2-(trifluoromethyl)benzamido)-4,5,6,7-tetrahydrothieno[2,3-c]pyridine-3-carboxylate [Compound 5C]”, the EC50 in data set [6] (setting [9]) was determined as 4.73 ± 0.69 µM.

For `CC1(C)Cc2c(sc(NC(=O)c3ccccc3C(F)(F)F)c2C(=O)O)C(C)(C)N1` [Compound 5G, 5,5,7,7-tetramethyl-2-(2-(trifluoromethyl)benzamido)-4,5,6,7-tetrahydrothieno[2,3-c]pyridine-3-carboxylic acid], the concentration giving a half-maximal response (EC50) in data set [6] (Leishmania major, 72 h) was over 12.5 µM.

Take `COC(=O)c1c(NC(=O)c2ccc(F)c(C(F)(F)F)c2)sc2c1CC(C)(C)NC2(C)C` [Compound 5H, Methyl-2-(4-fluoro-3-(trifluoromethyl)benzamido)-5,5,7,7-tetramethyl-4,5,6,7-tetrahydrothieno[2,3-c]-pyridine3-carboxylate]: the half-maximal effective concentration (EC50) in data set [6] (Leishmania major, 72 h) worked out at 3.05 ± 0.47 µM.
